Patent US20200289611A1, “Methods and Compositions for the Inhibition of Quorum Sensing in Bacterial Infections” (priority 2016, published 2020)
Entries after “also recorded” stand apart in the source; their conditions may differ. Read-outs that look alike come from different tables or passages of the source.

Assays:
[1] = test system: agr activation of LAC agr-P3 lux; assay: Measurement of quorum quenching in vivo (agr-P3 lux reporter strain); set-up: species or system mice
Method: Inoculum preparation for assessing quorum quenching in vivo: An LAC reporter strain engineered to couple agr activation with bioluminescence, agr-P3 lux (AH2759) was grown in TSB medium+chloramphenicol, overnight at 37° C. in a shaking incubator set to 200 rpm. Overnight cultures were diluted 1:100 TSB+chloramphenicol and subcultured to an optical density of 0.1 at 600 nm hr). Bacterial cells were the pelleted and resuspended in sterile saline. […] Using the image analysis tools in living image software, circular analysis windows (of uniform area) were overlaid onto abdominal regions of interest (as depicted in FIG. 8e) and the corresponding bioluminescence values (total flux) were measured and plotted vs. time after infection.
To this end, mice with an agr-P3 lux reporter strain were challenged and carefully monitored the kinetics of agr activation over a six-hour period immediately following infection.

[2] = test system: AIP signal biosynthesis (AgrB/AgrD); assay: Mass spectrometric measurement of AIP production (agrBD in agr null LAC); type: cell-based, Staphylococcus aureus; conditions: apicidin treated vs vehicle cultures
Method: (§1) To investigate the mechanisms by which apicidin inhibits quorum sensing, a series of in vitro assays were conducted to systematically assess the relative contribution of each of the core genetic elements of the agrBDCA operon (FIG. 13A). The membrane embedded peptidase AgrB, is responsible for processing the AgrD pro-peptide (immature AIP) for extracellular release. To determine if apicidin inhibits agr signaling at the level of AIP signal generation, an established system was used whereby the agrBD genes (under sarA P1 promoter regulation), were integrated into an agr null strain derived from the USA300 isolate LAC (40). This construct enables alterations to AIP signal biosynthesis to be clearly delineated from regulation stemming from signal integration. […] Next, the possibility that apicidin interferes with the sensory activity of AIP receptor AgrC was explored. For this, a R235H construct bearing a point mutation that confers constitutive AgrC activity, and thereby enables phospho-activation of AgrA to occur independently of AIP binding, was employed. […] Next, it was determined if AgrA serves as the target of apicidin. To this end, an agr null reporter construct, whereby agrP3 lux activation can only be achieved through the constitutive production of plasmid encoded AgrA […], was employed. […]

AgrA = molecular target: T1, AgrA (Staphylococcus aureus, UniProt P0A0I7); assay: agr null agrP3 lux reporter with plasmid encoded AgrA; type: cell-based; conditions: agr null strain
T1 construct: expressed in transfected cells; host or cells: agr null S. aureus agrP3-lux reporter strain
T1 sequence (P0A0I7 whole entry): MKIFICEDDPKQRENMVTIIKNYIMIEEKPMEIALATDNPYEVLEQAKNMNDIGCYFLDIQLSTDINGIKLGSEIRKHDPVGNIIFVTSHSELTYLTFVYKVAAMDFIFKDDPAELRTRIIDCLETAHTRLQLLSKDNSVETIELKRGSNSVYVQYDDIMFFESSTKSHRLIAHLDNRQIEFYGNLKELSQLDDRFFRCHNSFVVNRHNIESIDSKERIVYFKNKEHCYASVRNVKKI
Method: as §1

AgrC = assay: Constitutive AgrC mutant (R235H) assays; type: cell-based, Staphylococcus aureus
Method: as §1

MRSA transcriptome (LAC) = assay: RNA-seq of WT LAC cultures; type: cell-based, Staphylococcus aureus
Method: Cultures of LAC and LAC ? agr were grown in TSB with DMSO alone or 100 µM apicidin (diluted in neat DMSO). All four cultures were grown to optical density of 1.4 at 600 nm, and the RNA was purified. The samples were subjected to DNase treatment and sample was quality was affirmed via Bioanalyzer (Agilent). […] was depleted with a Ribo-Zero rRNA Removal Kit from gram positive bacteria (Illumina). cDNA libraries were generated at the University of Iowa Genomics Division using the TruSeq Stranded mRNA Library Prep kit (Illumina). Sample were barcoded, pooled and sequenced in a 100×100 pared end reads using HiSeq_FPR3757 genome sequence using SeqMan NGen (DNASTAR) and the alignment were analyzed using ArrayStar (DNASTAR).
To evaluate the impact of apicidin upon global transcriptional regulation RNA-seq analysis upon WT LAC cultures grown in the presence of apicidin or vehicle was conducted. For purposes of comparing the effects of apicidin upon the MRSA transcriptome with those resulting from agr deletion, parallel RNA seq-analysis of WT and Δagr preparations were performed. A four-fold cutoff as the threshold for differential gene expression was used, and apicidin altered the expression of thirty transcripts, with >50% of these representing prototypical agr targets such hla, RNAIII, psms, and spl genes (FIG. 10).

[3] = test system: agr (P3-YFP reporter strains, agr types I-IV); assay: agr P3-YFP reporter quorum quenching assay; type: cell-based, Staphylococcus aureus
Method: (§2) Apicidin was tested for quorum quenching activity against all four agr types using P3-YFP reporter strains AH1677 (type I), AH430 (type II) AH1747 (type III), and AH1872 (type IV). (28) Overnight cultures of reporter strains that were grown in TSB supplemented with Cam were inoculated at a dilution of 1:250 into fresh TSB containing Cam. 100 μL, aliquots were added to 96-well microtiter plates containing 100 μL aliquots of TSB containing Cam and 2-fold serial dilutions of apicidin. Readings were recorded at 30 min increments using a Tecan Systems Infinite M200 plate reader.

[4] = test system: polymorphonuclear neutrophils (PMN) at MRSA infected skin; assay: Flow cytometry of PMNs in infected skin; type: in vivo, mice
Method: For skin: abdominal skin ulcerations were excised and incubated in trypsin (0.6% in PBS) for 75 min at 37° C.; then cut into small pieces and incubated in Collagenase type II (0.5 mg/ml RPMI) for 90 min at 37° C. Skin cell suspensions were generated by serial passage of skin fragments through 18 and 20 gauge syringes. IN cell suspensions were generated mincing inguinal LNs with a razor blade before by serial passage of skin fragments through 18 and 20 gauge syringes. AU tissue preps were passed through a 70 am filter before immune cell staining. For whole blood: blood was collected, washed and resuspended in Tris-buffered ammonium chloride to lyse red blood cells.
For staining of skin, LN and whole blood preparations, the following antibodies: Anti-Ly6G (AI8), Anti-Ly6C (HK1.4), -CD11b (M1/70), CD45 (30-F11) were purchased from BioLegend. To block nonspecific binding, cells were incubated with rat anti-mouse CD16/32 FcγRIII/II (2.4G2) and vortexed prior to surface staining. In all experiments, LN or blood cells were collected on a FACS LSR using Cellquest software, and analyzed via FlowJo software. Dead cells were excluded by low forward-scatter and side-light scatter. Spectral overlaps between fluorochrome channels were corrected by automated compensation on singly stained, positive controls for each fluorochrome. In general, 50,000 cells were collected/tube. Flow cytometric analyses of agr-interference in bacterial cultures were conducted.

[5] = test system: agr systems of Staphylococcus epidermidis isolates of each agr-type; assay: agr-P3 reporter strains of S. epidermidis; type: cell-based
MRSA (USA300 LAC) = assay: Intradermal MRSA skin infection model; type: in vivo, mice (C57BL/6 and BALB/c); conditions: for cutaneous bacterial burden: Lux+ MRSA bioluminescence (IVIS)
Method: At D0, age, strain and sex matched mice were anesthetized with isoflurane, abdominal skin was carefully shaved and exposed skin was cleansed by wiping with an alcohol prep pad. For inoculum preparation, a USA 300 MRSA strain (AH1263), its deletion mutant, LAC strains engineered for constitutive bioluminescence via lux operon insertion (AH3700) or the Lux+ LAC engineered to constitutively express red fluorescent protein (AH 3868), green fluorescent protein (AH3669) were grown to mid-log-phase, pelleted and resuspended in DPBS to achieve 50 μl inoculum mixtures that contained either 2×10^7 CFUs+/−5 μg apicidin (diluted in neat DMSO). Apicidin or DMSO containing inoculums were injected intradermally into abdominal skin. Baseline body weights of mice were measured before infection and every day thereafter for a period of 7 days. For determination of lesion size, digital photos of skin lesions were taken daily and analyzed via ImageJ software.
The potent in vitro activity of apicidin encouraged an assessment of its efficacy in vivo. To this end, an intradermal challenge model was employed by delivering a single 5 μg dose of apicidin along as part of the inoculum suspension containing 2×10^7 MRSA organisms.

S. aureus LAC = assay: Bacterial growth (OD) in reporter time course; type: cell-based, Staphylococcus aureus
Method: as §2
Overnight cultures of agr strain types I, II, III, and IV were inoculated 1:500 into 5 ml of TSB (in 17×150 mm culture tubes) containing apicidin at concentrations of 100, 50, 25, 12.5, and 6.25 μg mL (28). All cultures were incubated at 37° C. with shaking (250 rpm), and growth was monitored by periodically transferring 100 μL of culture to a 96-well microtiter plate and reading OD600 in a Tecan Systems Infinite M200 plate reader. […] To quantify hemolytic activity, the filter sterilized culture supernatants from apicidin treated cultures were serially in TSB, and 50 μL aliquots were dispensed in quadruplicate into 96-well microtiter plates. […] Hemolysis was detected by the loss of turbidity as measured at OD630 using a Tecan Infinite M200 plate reader.

[6] = test system: CXCL-2 and G-CSF in lesional tissue; assay: Cytokine measurements from tissue homogenates; type: in vivo, mice; conditions: lesional tissue one day after infection
Method: Biopsy punches (4 mm), obtained from the center of skin ulcerations 1 day after infection, were homogenized with in sterile RPMI with proteinase inhibitor cocktail. The supernatants from these preparations were incubated with a multiplex bead array for IL-1β, G-CSF, KC (CXCL1), and CXCL2. Data were collected on a Luminex 200 (Luminex, Austin, Tex., USA) and analyzed with […]

CCC(=O)CCCCC[C@@H]1NC(=O)[C@H]2CCCCN2C(=O)[C@H](C(C)CC)NC(=O)[C@H](Cc2cn(OC)c3ccccc23)NC1=O (stereo partly drawn) [apicidin]
skin ulcers after agr-P3 lux reporter strain challenge ([1]; 14-day period): dramatic reduction in dermatopathology
agr activation in vivo ([1]; agr-P3 lux reporter, 5 ug apicidin, first hours after infection): reduced quorum sensing activity in vivo; also recorded: significant interference of agr activation in vivo; also recorded: high level of agr interference
effect on AIP production [2]: does not target AIP signal biosynthesis; also recorded: does not alter the release of AIP signals
inhibition of AgrA-dependent agr-P3 reporter activation (AgrA): dose dependent inhibition of agr-P3 driven bioluminescence; also recorded: inhibited agr-P3 reporter activation
quorum quenching in agr-P3 reporter strain with constitutive AgrC activity (AgrC): maintenance of potent quorum quenching activity
inhibition of lytic activity, constitutive AgrC mutant (AgrC; RBC lysis, R235H strain): dose dependent inhibition of lytic activity
transcriptional signature (MRSA transcriptome (LAC)): narrowly focused upon the agr virulon; also recorded: largely confined to agr-regulated transcripts
number of transcripts with altered expression (MRSA transcriptome (LAC); 100 uM apicidin, four-fold cutoff): thirty
share of altered transcripts that are prototypical agr targets (MRSA transcriptome (LAC); four-fold cutoff): > 50%
agr inhibition relative to its analogues [3]: showed the most impressive actions as an agr inhibitor
MICs for quorum sensing inhibition ([3]; across S. aureus isolates): low micromolar
agr-type dependence of quorum quenching potency ([3]; agr P3 driven YFP expression, time course): types II and IV representing the most sensitive and resistant respectively
inhibition of quorum sensing (agr P3 reporter) ([3]; agr types I-IV reporter strains): inhibited quorum sensing activity across S. aureus isolates; also recorded: inhibition extends to all 4 agr types; also recorded: inhibited the quorum sensing responses of multiple agr types
IC50 of agr-inhibition ([3]; all agr types): μM concentrations that were sub-inhibitory for growth
PMN density / accumulation at infected skin ([4]; 24 hours post infection): enhanced; also recorded: increased the density of PMNs within infected wounds; also recorded: augmenting their accumulation
frequency of PMN able to phagocytose MRSA ([4]; DsRed+ MRSA): Though not significantly, a trend showing increased frequency
number of PMNs that phagocytosed MRSA ([4]; lesional skin preparations): increased; also recorded: overall enhancement MRSA uptake within the entire network of cutaneous PMNs
frequency of apoptotic PMNs ([4]; lesional skin, one day after infection): decrease in the frequency of apoptotic PMNs
quorum quenching in S. epidermidis [5]: extend to multiple staphylococcal species
quorum quenching in S. epidermidis ([5]; listed as Apicidin): quorum sensing inhibition across S. epidermidis agr types
cutaneous bacterial burden (MRSA (USA300 LAC)): reduced; also recorded: decrease in bacterial burden was observed throughout the experiment
cutaneous bacterial burden (MRSA (USA300 LAC); listed as Apicidin): reduced cutaneous bacterial burden
CFUs recovered from lesional skin (MRSA (USA300 LAC); one day after infection): significantly fewer CFUs were recovered
skin lesion / dermatopathology (MRSA (USA300 LAC); single 5 ug dose with 2x107 MRSA, intradermal, 14 days): significantly reduced MRSA-induced dermatopathology
growth inhibition / bactericidal effect (S. aureus LAC): non-bactericidal; also recorded: minimal growth inhibition
production of CXCL-2 [6]: decrease
production of G-CSF [6]: decrease
